# Results as given in US6696490B2, “Slow release insect repellent compounds and process for delivering active” (priority 2002, dated 2004).
# Entries after “also recorded” stand apart in the source; their conditions may differ.
# Key:
# Format in all cases: in vivo
# [1] = SPME/GC-MS of PMD generated by hydrolysis of PMDL placed on the skin; settings: 100 μg/cm^2 PMDL on skin, sampling 0 to 300 min, FIG. 3a
# Experimental: Solid Phase Microextraction (SPME) is a sample preparation technique which has been used for trapping volatiles. In the subject invention, SPME was used to extract and concentrate PMD vapour (by-product of PMDL hydrolysis) in the headspace. The extracted analytes were then analyzed by Gas Chromatography-Mass Spectroscopy (GC-MS). The SPME fiber used here was from Supelco, a 2.0 cm long, StableFlex fiber (23-gauge needle), 50/30 divinylenzene/carboxene on polydimethylsiloxane. Agilent 6890 Gas Chromatography equipped with Agilent 5973 Mass Selective Detector and Chemstation, G1701CA software were used for analyzing and identifying PMD. GC was equipped with a 0.25 […] HP-5 capillary column with 0.25 micrometer of cross-linked 5% Phenyl Methyl Siloxane. The GC oven was programmed to increase its temperature at 2 min from the initial temperature of 60° C. to 300° C. at 6° C./min. The injector temperature and the head pressure were 250° C. and 8.6 psi, respectively. The flow rate of the carrier gas (helium) was 1 mL/min The total flow rate was set at 25 mL/min Purge was off for 0.5 min, i.e. from a split mode into a splitless mode after the program was started. Agilent 5973 Mass Selective Detector with an ion source by an electron impact (El) data system was used for mass spectrometric identification. […]
# [2] = Ethanol extraction of PMDL-treated skin followed by APCI-MS for linoleic acid; settings: FIGS. 6 and 7
# Experimental: Another set of experiments was conducted to confirm the results obtained earlier from SPME-GC for PMD & PMDL and also to confirm hydrolysis of PMDL into linoleic acid and PMD on the skin by ethanol extraction of the skin followed by GC-MS and APCI-MS analysis of the collected extracts. In this set, individual stock solutions of PMD and PMDL were prepared by placing 0.0978 g PMD and 0.1095 g in 5 mL of ethanol, respectively. Then five areas of skin, about 7 cm^2 on each arm, were selected. One of the five spots on each arm remained untreated as control and marked as a blank. The remaining four areas on the right arm were dosed with 32 μL PMDL and the remaining four areas on the left arm were dosed with 36 μL of PMD. Untreated area 1, and the treated area on each arm marked as 2, 3, 4, and 5, were then extracted with 4 mL of ethanol for a period of 3 min at 0, 15, 60 and 150 min intervals, respectively. Collected extracts were then analyzed by GC-MS for their PMD and PMDL and by APCI-MS for their linoleic acid contents (FIGS. 4, 5, 6 and 7). […]
# APCI-MS was used to analyze linoleic acid in ethanol skin extracts. […] Samples from the last set of experiments, as described in the […] were analyzed for their linoleic acid level using this technique. Each extracted sample was analyzed in triplicate.
# [3] = Ethanol extraction of PMD- and PMDL-treated skin followed by GC-MS
# Experimental: PMDL standard and ethanol skin extracts were also analyzed by GC-MS. The injection mode for PMDL was a split mode at 10:1 split ratio. The rest of conditions were the same as the ones used for PMD analysis by GC-MS as are listed above. The SPME apparently is a tube (e.g., dome or other like structure) strapped to measured area (e.g., arm) with an opening (e.g., at top) to insert analytical extractor which is essentially a needle used to trap/absorb volatiles released in the apparatus.
# In this set, individual stock solutions of PMD and PMDL were prepared by placing 0.0978 g PMD and 0.1095 g in 5 mL of ethanol, respectively. Then five areas of skin, about 7 cm^2 on each arm, were selected. One of the five spots on each arm remained untreated as control and marked as a blank. The remaining four areas on the right arm were dosed with 32 μL PMDL and the remaining four areas on the left arm were dosed with 36 μL of PMD. Untreated area 1, and the treated area on each arm marked as 2, 3, 4, and 5, were then extracted with 4 mL of ethanol for a period of 3 min at 0, 15, 60 and 150 min intervals, respectively. Collected extracts were then analyzed by GC-MS for their PMD and PMDL and by APCI-MS for their linoleic acid contents (FIGS. 4, 5, 6 and 7). FIG. 4 is plot of PMD, FIG. 5 is plot of PMDL; and FIGS. 6 and 7 are plots for linoleic acid.
# [4] = SPME/GC-MS of headspace above forearm skin dosed with PMD (evaporation of PMD)
# Experimental: Solid Phase Microextraction (SPME) is a sample preparation technique which has been used for trapping volatiles. In the subject invention, SPME was used to extract and concentrate PMD vapour (by-product of PMDL hydrolysis) in the headspace. The extracted analytes were then analyzed by Gas Chromatography-Mass Spectroscopy (GC-MS). The SPME fiber used here was from Supelco, a 2.0 cm long, StableFlex fiber (23-gauge needle), 50/30 divinylenzene/carboxene on polydimethylsiloxane. Agilent 6890 Gas Chromatography equipped with Agilent 5973 Mass Selective Detector and Chemstation, G1701CA software were used for analyzing and identifying PMD. GC was equipped with a 0.25 […] HP-5 capillary column with 0.25 micrometer of cross-linked 5% Phenyl Methyl Siloxane. The GC oven was programmed to increase its temperature at 2 min from the initial temperature of 60° C. to 300° C. at 6° C./min. The injector temperature and the head pressure were 250° C. and 8.6 psi, respectively. The flow rate of the carrier gas (helium) was 1 mL/min The total flow rate was set at 25 mL/min Purge was off for 0.5 min, i.e. from a split mode into a splitless mode after the program was started. Agilent 5973 Mass Selective Detector with an ion source by an electron impact (El) data system was used for mass spectrometric identification. The detector was used in a scan mode to scan mass ranging from a Low Mass of 40 to a High Mass of 550. Solvent delay time was 3.5 min. Total sample run time was 60 min.
# To determine the extent of evaporation of PMD from the skin matrix over a period of time (correlating to amount of PMD produced by hydrolysis from PMD-L), a number of experiments were carried out. In these experiments, SPME fiber was inserted into a headspace of a glass semi-ball chamber fastened on forearm by an elastic band. […]
# For a first set of SPME experiments, a PMD solution at concentration of 21800 μg/mL was prepared by placing 0.218 g of PMD crystals in 10 mL of absolute ethanol. […] The SPME glass chamber and fibers were then removed and the SPME fiber were analyzed by GC-MS for measurement of PMD. […]
Compound,PMD signal generated from hydrolysis of PMDL on the skin over time (SPME/GC-MS) [1],PMD signal generated from hydrolysis of PMDL on the skin over time (SPME/GC-MS) ([1]; listed as PMD-L),"linoleic acid level on PMDL treated skin over time ([2]; APCI-MS of ethanol extracts at 0, 15, 60 and 150 min)",level of linoleic acid in PMDL treated skin compared to untreated skin (blank) ([2]; APCI-MS of ethanol extracts),"levels of PMDL on PMDL treated skin (GC-MS peak area of ethanol extracts) ([3]; leave on time 0 to 150 min, FIG. 5)",level of PMD on PMDL treated skin ([3]; over a 150 minute period),"time after which active is no longer present ([3]; PMD delivered in non-ester form, FIG. 4)","PMD levels on PMD treated skin (GC-MS peak area of ethanol extracts) ([3]; leave on time 0 to 150 minutes, FIG. 4)","levels of PMD on the skin over leave on time (SPME/GC-MS) ([4]; 40 μg/cm^2 PMD applied neat, 0 to 300 minutes, FIG. 3b)","time over which PMD signal was followed and detected ([4]; 40 μg/cm^2 PMD on forearm skin, SPME extraction time 30 min, FIG. 3b)","time after which PMD signal could not be detected ([4]; 40 μg/cm^2 PMD on forearm skin, SPME sampling time 5 min)"
"3,8-p-Menthanedilinoleate [PMDL]",presence of high levels of PMD released from the skin at the early stage and then through a decrease in the PMD levels over period of time,initial sharp increase in the concentration of PMD,an increase in linoleic acid level over the 15 to 60 min period followed by a decrease at 150 min; also recorded: increase in linoleic on treated skin in first hour followed by a decrease,substantially higher in the treated skin samples compared to the untreated skin,a trend of decrease in the levels of PMDL on the skin,simultaneous increase in the level of PMD on the skin,,,,,
"CC1CCC(C(C)(C)O)C(O)C1 (centres unmarked) [PMD, 3,8-p-menthanediol, reference compound]",,,,,,,2.5 h,decreased as the leave on time increased from 0 to 150 minutes; also recorded: decrease of PMD,decreased as the leave on time proceeded from 0 to 300 minutes,up to 5 hours,2 h
